Measurements taken from patent publication US20100041603A1, “Method of Promoting Wound Healing” (Corthera, Inc., priority 2008, published 2010).
Entries after “also recorded” stand apart in the source; their conditions may differ.

Columns and labels:
[1] = test system: 20×6 mm incisional wounds on the back; test: Porcine skin wound study (incisional wounds, six weeks); format: in vivo, juvenile pigs
Text: Overview of the Animal Study. In selecting the appropriate animal for this study, a pig was selected because of the anatomical similarities between pig skin and human skin. In fact, pig wound healing has been used in numerous studies to simulate human skin (Sullivan et al., Wound Repair Regen. 9: 66-76, 2001).
Design of Study. In this study, juvenile pigs were oriented with twelve wound sites per animal—20×6 mm incisional wounds on the back—over the course of a six week study (see FIG. 2). Systemic relaxin was delivered via mini-pumps to achieve 20 ng/mL serum concentrations. Topical formulations were prepared by Dow Pharma, and consisted of propylene glycol and ethanol, which contributed to good long term stability of the therapeutic agent. Dosages consisting of placebo, 0.5 mg/mL (low dose), and 2.5 mg/mL (high dose) were prepared. The goals of the study were to assess the safety of topical relaxin on wound healing and to determine the efficacy of relaxin as a treatment for wound healing and/or scar formation. During the first week, irrigation was performed once daily. During weeks 2-3, topical formulation was applied twice daily, and during weeks […], topical formulation was applied once daily.
Design of Drug The study drug was relaxin (produced by recombinant technology). Recombinant relaxin is identical to the native human hormone H2 relaxin, produced using a recombinant single chain process. The active test article may be aseptically diluted to the desired concentration with the acetate diluent (20 mM sodium acetate, pH 5.0).
Study Procedures. Referring to FIG. 3 which depicts the back of a pig with incisions according to the experimental design described herein at the completion of six weeks, the wound in Section 3 was irrigated with relaxin construct during the first week, and subsequently treated with high dose topical relaxin formulation during weeks 2-6 as described above. Sections 4, 5, and 6 received no irrigation during week 1. Section 4 was treated with placebo. Section 5 was treated with low dose topical formulation, and Section 6 was treated with high dose topical formulation.
Cosmetic appearance of skin. Visual rankings of wound pictures were conducted by neutral observers who evaluated scabs during early wound healing (days 5-7) and scars at the end of the study (see FIG. 4). […] The results of this visual wound assessment determined that 89% of the time a relaxin treatment group was selected in the top three. Only 11% of the time, a group not treated with relaxin was selected in the top three.
A cosmetic score was also determined by a professional dermatologist at weeks 2, 4, and 6. The cosmetic score has five components: (1) color—matching with surrounding skin; (2) texture—no hardness; (3) distortion—no distortion of nearby skin; (4) contour—flush with surrounding skin; (5) global—no hypertrophy or keloid formation. During this dermatological assessment, evaluation at time 2 weeks was obscured by scabs, so the data for cosmetic scores was collected from evaluation at weeks 4 and 6 (see FIG. 5). […] In the bottom profile, the scar is visible.
Histological evaluation. A professional histopathologist evaluated the pathology of the treatments for such indications as granulation, inflammation, and necrosis. In judging granulation tissue, it is considered that early response to wound includes invasion of the site by fibroblasts, inflammatory cells, and new blood vessels. Over time, this resolves to more normal tissue as the site heals. Chronic inflammation characterized by the presence of macrophages, giant cells, lymphocytes, and PMNs indicated adverse reaction. Minor factors such as keratosis (formation of keratin layer outside the epidermis) and acanthosis (thickening of the epidermal layer) are also considered. […]

wounded sites = conditions: systemic relaxin administration in rats; cited from earlier work
[2] = test system: 20×6 mm incisional wounds on the back; test: Porcine skin wound study (incisional wounds, six weeks); format: in vivo, juvenile pigs; conditions: dose range 10-960 μg/kg/day
[3] = Canine gingiva study: RLX migration and degradation after gingival injection (SELDI-TOF MS); format: in vivo, dog; conditions: for RLX detection in gingiva away from the site of injection: 1 hr time point; for concentration of H2 RLX detected in treated dog gingiva: site of injection
Description: The aim of this study was to determine the rate of RLX migration and extent of degradation after gingival injections. […] Employing a dog model, RLX was administered and tissue punch biopsies were collected at the site of injection and 0.5, 1 and 2 cm from the site of injection. Tissue was collected at several time points including 1, 2 and 4 hrs after injection. Protein was extracted from the gingival biopsies and analysed via ProteinChip technology (Surface Enhanced Laser Desorption/Ionization Time-of-Flight Mass Spectrometry, SELDI-TOF MS), which combines two well-established methods of solid phase chromatography and TOF-MS into an integrated platform. ProteinChip arrays were coated with anti-H2 RLX Ab, allowing the specific capture of RLX and associated breakdown/modified products.
Design of Drug. Gingival injections were administered (25 μg H2 RLX/100 μl, 41 μM) and tissue was collected at several positions including the site of injection and 0.5, 1 and 2 cm from the site of injection. Tissue was collected 1, 2 and 3 hrs after injection.
a) Protein Extraction and Quantitation. Frozen gingival biopsies were homogenized in extraction buffer (10 μl/mg tissue) containing 10 mM Tris-HCl, 10 mM NaCl, 0.1% TFA and protease inhibitor (complete mini, Roche). The extract was centrifuged (6000×g) for 10 min and the supernatant was collected, aliquoted and stored at −80° C. Total protein concentration was determined using the Bradford assay. Protein concentrations ranged from 1.4 mg/ml to 2.8 mg/ml, all samples were standardized to 1.4 mg/ml in extraction buffer.
b) SELDI-TOF MS analysis—Analysis of RLX treated gingiva on PG20 arrays. Anti-H2 RLX Ab ([…]/0.25 mg/ml; Genentech) or control IgG (Ciphergen Biosystems) was applied to each spot of a PS20 array which had been pre-coated with Protein G (Ciphergen Biosystems). After antibody binding, the chip was washed once with PBS/0.5% Triton X-100 for 5 min with agitation (5 μl per spot), followed by two PBS washes. Dog gingiva extracts (3 μl/1.4 mg/ml) were applied to each spot and incubated for 4 hrs. Non-specifically bound proteins were removed by sequentially washing with PBS/0.5% Triton X-100, PBS and 1 mM HEPES, pH 7.2. The chips were air dried and 1 μl of 50% saturated sinapinic acid in 50% (v/v) acetonitrile, 0.5% trifluoroacetic acid was applied onto each spot twice, arrays were air dried between each application. Chips were subsequently analysed by SELDI-TOF MS (Ciphergen Biosystems) using the following settings, laser 220 and sensitivity 9.
c) Generation of H2 RLX Std Curve on PG20 arrays. H2 RLX (batch number 11835-89) was spiked into control dog gingiva (1.4 mg/ml) at different concentrations, including 100 nM, 50 nM, 12.5 nM, 6.25 nM, 3.125 nM and 1.56 nM and analysed as described above.
Findings. In order to quantitate the levels of RLX in the treated gingiva samples a H2 RLX standard curve was generated. The linear dynamic range was determined to be two orders of magnitude with a R^2 value of 0.9495.

[4] = systemic relaxin vs wounds not receiving systemic relaxin
[5] = systemic relaxin, six weeks, blinded assessments

**Q.** Which “blood vessels / redness in the wound site” value ([1]; after about six weeks of treatment) does the source give for “relaxin: Recombinant relaxin identical to the native human hormone H2 relaxin, produced using a recombinant single chain process” here?
**A.** overall reduction in blood vessels; also recorded: significantly less redness

**Q.** What about the “wound appearance compared to control pig” value ([1]; after day six, systemic relaxin) of the same substance?
**A.** healed faster, better

**Q.** And the “visual wound assessment: share of times a relaxin treatment group was selected in the top three” value ([1]; blinded neutral observers ranking the best three of six groups of wound pictures)?
**A.** 89%

**Q.** And the “cosmetic ranking of wound/scar areas, irrigation vs topical only” value ([1]; dermatologist cosmetic score, weeks 4 and 6, irrigation relaxin treatment vs only topical relaxin treatment)?
**A.** ranked higher overall

**Q.** And the “adverse effects associated with relaxin treatment (histopathology)” value ([1]; pig, in vivo)?
**A.** no adverse effects

**Q.** What about the “necrosis or inflammation associated with relaxin treatment” value ([1]; pig, in vivo) of the same substance?
**A.** no necrosis or inflammation

**Q.** What about the “scar visibility at wound site” value ([1]; six weeks of treatment, systemic relaxin vs placebo) of the same substance?
**A.** the scar is invisible; also recorded: no scar was visible

**Q.** And the “scarring on histopathological slide” value ([1]; six weeks, relaxin treatment vs no relaxin treatment (severe scarring))?
**A.** mild scarring

**Q.** And the “collagen organization (objective collagen scoring system, redness ratio)” value [1, 4]?
**A.** significantly better collagen organization

**Q.** And the “composite wound healing score (three point scale, collagen appearance)” value [1, 4]?
**A.** significantly improved

**Q.** What about the “chronic inflammation in wound sites (histology score)” value [1, 5] of the same substance?
**A.** significantly reduced

**Q.** And the “granulation tissue in wound sites (histology score)” value [1, 5]?
**A.** significantly reduced

**Q.** And the “wound healing, systemic vs topical administration” value ([1]; systemic treatment compared to topical administration)?
**A.** better wound healing

**Q.** And the “wound healing compared to placebo” value ([1]; topical-only treatment (low and high dose, sections 5 and 6 vs section 4), six weeks)?
**A.** improved wound healing

**Q.** And the “VEGF and bFGF transcripts at wounded sites” value (wounded sites)?
**A.** upregulation

**Q.** And the “new blood vessel formation at wounded sites” value (wounded sites)?
**A.** increased new blood vessel formation

**Q.** What about the “adverse effects and tolerability over dose range” value [2] of the same substance?
**A.** no relevant adverse effects; also recorded: well-tolerated

**Q.** What about the “RLX detection in gingiva away from the site of injection” value (from here on “RLX detection in gingiva away”) ([3]; 0.5 cm from site of injection) of the same substance?
**A.** detected

**Q.** And the “RLX detection in gingiva away” value ([3]; 1 cm from site of injection)?
**A.** not detected

**Q.** And the “RLX detection in gingiva away” value ([3]; 2 cm from site of injection)?
**A.** not detected

**Q.** And the “RLX detection in gingiva” value ([3]; remaining time points (2 and 4 hrs))?
**A.** only detected at the site of injection

**Q.** And the “concentration of H2 RLX detected in treated dog gingiva” value (“concentration of H2 RLX detected” below) ([3]; 1 hr after gingival injection (25 μg H2 RLX/100 μl))?
**A.** 90 nM

**Q.** What about the “concentration of H2 RLX detected” value ([3]; 2 hrs after gingival injection) of the same substance?
**A.** 78 nM

**Q.** And the “concentration of H2 RLX detected” value ([3]; 4 hrs after gingival injection)?
**A.** 21 nM
